According to PubChem BioAssay AID488835 (Broad Institute, 2010):

Biological target: Lysine-specific demethylase 4C (Homo sapiens) (UniProt Q9H3R0)
Test: GASC-1 (JMJD2C) histone demethylase inhibitors, dose response, biochemical, DELFIA europium, cherry-picked samples (AID 488835);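 also: signal is the H3K9me2 demethylation product detected by a dimethyl-specific antibody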
Conditions: GST-JMJD2C(1-420), H3K9me3 demethylation

Sequence of Lysine-specific demethylase 4C (Homo sapiens) (Q9H3R0 1-420 limits assumed): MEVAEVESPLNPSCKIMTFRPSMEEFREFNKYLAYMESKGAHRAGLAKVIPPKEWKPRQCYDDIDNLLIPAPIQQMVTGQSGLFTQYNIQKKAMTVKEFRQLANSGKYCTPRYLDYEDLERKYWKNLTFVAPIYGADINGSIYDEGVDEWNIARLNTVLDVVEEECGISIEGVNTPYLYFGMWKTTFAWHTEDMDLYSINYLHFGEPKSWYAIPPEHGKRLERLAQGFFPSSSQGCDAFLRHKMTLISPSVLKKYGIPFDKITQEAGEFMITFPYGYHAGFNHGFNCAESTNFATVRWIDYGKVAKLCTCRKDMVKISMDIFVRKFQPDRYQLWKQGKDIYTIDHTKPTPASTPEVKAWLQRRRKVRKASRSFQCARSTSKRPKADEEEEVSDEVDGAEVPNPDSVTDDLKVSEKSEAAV

C#CCOCCOCCOCCNc1nc(N2CCN(C(=O)CCCCCCCCCCNC(=O)[C@H]([C@@H](C)CC)n3cc(CCCCN=C(N)N)nn3)CC2)nc(N2CCN(C(=O)CCCCCCCCCCNC(=O)[C@H](CCCCN)n3cc(C)nn3)CC2)n1
AC50: 6.07 µM
